The experiment addresses Substance-P receptor (Homo sapiens, UniProt P25103). Description: Displacement of [3H]SP from human NK1 receptor expressed in CHO cells. On the technique in general: Displacement assays read how much labelled ligand stays bound in the presence of the test substance.

pIC50: −log10 of the molar value.

Sequence of Substance-P receptor (P25103 whole entry): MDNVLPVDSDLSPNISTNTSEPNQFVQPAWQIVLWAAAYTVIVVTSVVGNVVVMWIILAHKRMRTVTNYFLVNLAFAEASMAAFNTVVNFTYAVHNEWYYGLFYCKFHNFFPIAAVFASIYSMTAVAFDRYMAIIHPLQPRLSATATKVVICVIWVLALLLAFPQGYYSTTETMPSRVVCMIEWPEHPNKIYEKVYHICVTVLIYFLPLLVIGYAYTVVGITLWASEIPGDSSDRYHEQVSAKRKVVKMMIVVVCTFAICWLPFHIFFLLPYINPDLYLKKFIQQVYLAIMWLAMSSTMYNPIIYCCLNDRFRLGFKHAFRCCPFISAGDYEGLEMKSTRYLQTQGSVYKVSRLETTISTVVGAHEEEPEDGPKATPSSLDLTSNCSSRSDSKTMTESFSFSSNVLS

The compound `C[C@@H](O[C@@H]1CN(C2CC(=O)C(=O)C2)C[C@H]1c1ccc(F)cc1)c1cc(C(F)(F)F)cc(C(F)(F)F)c1` [3-((3S,4R)-3-((R)-1-(3,5-bis(trifluoromethyl)phenyl)ethoxy)-4-(4-fluorophenyl)pyrrolidin-1-yl)-5-hydroxycyclopent-2-enone] showed a pIC50 of 9.52.

As a reminder, the pIC50 is the negative decadic logarithm of the IC50, by convention in mol/L.

Values taken from BindingDB's records for doi:10.1016/j.bmcl.2007.06.085 (Merck, 2007).
